Results reported in patent US20140228430A1, “Method of Accelerating Corneal Wound Healing” (Alcon Research, Ltd., priority 2010, published 2014).

Test system: Rat Model of Corneal Injury
Test: Rat model of corneal injury (corneal epithelial wound closure)
Assay type: in vivo
Conditions: topical ocular 5 μl every 2 hrs for first 8 hrs, female Lewis rats, compared with positive control 0.4% HA; for normalized number of completely healed eyes (Healed 24 hours n=10): number/10 eyes
Procedure: Female Lewis rats (175-200 g) were anesthetized with a xylazine/ketamine cocktail (5 mg/kg and 50 mg/kg respectively). A 3 mm diameter circle was superficially demarcated on the central cornea using a 3 mm trephine. Using a corneal rust ring remover (AlgerbrushΠ Alger Co.) tipped with a 1 mm steel burr; the corneal epithelium was removed to the basement membrane within the established 3 mm boundary Immediately following epithelial removal, the corneas were topically stained with 2% sodium fluorescein (Alcon), washed with balanced saline (BSS) and Time 0 hrs images acquired. After 24 hrs, animals were again anesthetized and Time 24 hrs images were acquired.
Immediately after acquisition of Time 0 images, test articles (5 μl) were topically administered to the ocular surface. Animals received topical administration every 2 hrs for the first 8 hrs of the 24 hrs study time. A 0.4% solution of Hyaluronic Acid (HA) was prepared in phosphate-buffered saline (PBS). Compounds 1 and 5 were prepared in PBS and stored at −70° C. until use. During dosing, compounds were stored at 4° C.
Anesthetized rats (Time 0: xylazine/ketamine; Time 24 hrs: 5% isoflurane gas). The area of the cornea devoid of epithelial cells was stained by topical application of a 2% sodium fluorescein solution (Alcon), followed 10 seconds later with a thorough rinsing with BSS. Images from stained eyes were collected with a Canon digital camera fitted with a macro and close-up lens such that the cornea filled almost the entire image field. A continuous and flash illumination was provided with a Novoflex Cold Light Source Macrolight Plus illuminator. The continuous source was used to focus the eye with the aid of the video output of the Canon camera. A flash lamp illuminator and ring light attached to the camera lens system provided a synchronized and uniform illumination of the corneal surface. Eyes were illuminated and images were captured through a set of filters designed for fluorescein excitation (482±35 nm) and emission (536±40 nm).
Two image files were recorded for each exposure, a JPG-format RGB (red-green-blue) file used for image display and a Canon Raw file containing the raw sensor data. The raw data was extracted to a 16-bit portable greymap file that was subsequently processed with a demosaic function to make an image of only the green pixels containing the fluorescein information. A circular region of interest (ROI) was centered on the cornea and the automated analysis was performed using RatOSIWound v 2.0 software (Alcon). Automated analysis calculated the total fluorescein positive area of a single large spot indicative of the epithelial wound. The % closure at 24 hours (indicated as “% Closure 24 hours” on the ordinate axis of the graphs in FIGS. 1 and 3) was calculated as
while the number of eyes that were totally healed (that is, had no detectable defect; indicated as “Healed 24 hours n=10” on the ordinate axis of the graphs in FIGS. 2 and 4), normalized as number/10 eyes, was also determined
Data were analyzed using an ANOVA with a Dunnett post-hoc test at a 95% confidence interval.

Compound | % wound closure (% Closure 24 hours) (0.5% w/v dose in PBS) | normalized number of completely healed eyes (Healed 24 hours n=10) (0.5% w/v dose in PBS) | % wound closure (% Closure 24 hours) (1% w/v dose in PBS) | normalized number of completely healed eyes (Healed 24 hours n=10) (1% w/v dose in PBS)
COC(=O)CCC[C@H](O)[C@H](O)CO [compound 1] | as effective as the positive control 0.4% HA | as effective as the positive control 0.4% HA | as effective as the positive control 0.4% HA | as effective as the positive control 0.4% HA
O=C([O-])CCC[C@H](O)[C@H](O)CO.[Li+] [compound 5] |  |  | as effective as the positive control 0.4% HA | as effective as the positive control 0.4% HA
